Columns and labels:
[1] = system: HCT-116; experiment: Induction of cell cycle arrest in human HCT-116 cells assessed as accumulation of cells at G2/M phase at 10 nM after 24 hrs by flow cytometry (reference value: 16.35%); type: functional
[2] = system: HepG2; experiment: Antiproliferative activity against human HepG2 cells assessed as cell viability after 72 hrs by MTT assay; type: functional
[3] = molecular target: Tubulin beta (Homo sapiens) (UniProt P68371+Q9H4B7+Q13509+P04350+Q3ZCM7+P07437+Q13885+Q9BVA1+Q9BUF5+A6NNZ2); experiment: Inhibition of N,N'-Ethylenebis(iodoacetamide) binding to beta-tubulin in human HCT-116 cells assessed as reduction in EBI/beta-tubulin adduct formation preincubated for 2 hrs followed by EBI addition and measured after 1.5 hrs by Western blot analysis; type: cell-based; conditions: dose 0.2-25 µM, time 3.5 hrs
[4] = system: HCT-116; experiment: Induction of apoptosis in human HCT-116 cells assessed as viable cells at 20 nM after 24 hrs by annexinV and 7-ADD staining based flow cytometry (reference value: 96.7%); type: functional; conditions: read-out: Activity
[5] = system: HCT-116; experiment: Induction of apoptosis in human HCT-116 cells assessed as necrotic cells at 10 nM after 24 hrs by annexinV and 7-ADD staining based flow cytometry (reference value: 0.9%); type: functional
[6] = system: HCT-116; experiment: Induction of apoptosis in human HCT-116 cells assessed as necrotic cells at 40 nM after 24 hrs by annexinV and 7-ADD staining based flow cytometry (reference value: 0.9%); type: functional
[7] = system: HCT-116; experiment: Induction of cell cycle arrest in human HCT-116 cells assessed as accumulation of cells at G1 phase at 20 nM after 24 hrs by flow cytometry (reference value: 40.5%); type: functional
[8] = molecular target: Protein kinase C alpha type (Homo sapiens) (UniProt P17252); experiment: Inhibition of human recombinant PKCalpha at 10 uM by radiometric assay
[9] = system: SW-620; experiment: Antiproliferative activity against human SW-620 cells assessed as cell viability after 72 hrs by MTT assay; type: functional
[10] = (§1) Inhibition of porcine brain tubulin polymerization by fluorescence based assay; type: cell-based, Sus scrofa domesticus, 1-87 tumor cell line
[11] = system: 1-87 tumor cell line; experiment: as §1; conditions: Sus scrofa domesticus
[12] = system: HCT-116; experiment: Induction of apoptosis in human HCT-116 cells assessed as early apoptotic cells at 40 nM after 24 hrs by annexinV and 7-ADD staining based flow cytometry (reference value: 0.9%); type: functional
[13] = system: HCT-116; experiment: Antiproliferative activity against human HCT-116 cells assessed as cell viability after 72 hrs by MTT assay; type: functional
[14] = system: HCT-116; experiment: Induction of cell cycle arrest in human HCT-116 cells assessed as accumulation of cells at G1 phase at 10 nM after 24 hrs by flow cytometry (reference value: 40.5%); type: functional
[15] = system: A549; experiment: Antiproliferative activity against human A549 cells assessed as cell viability after 72 hrs by MTT assay; type: functional
[16] = molecular target: T1, Tubulin (Homo sapiens) (UniProt P68371+Q9H4B7+P0DPH7+P68366+Q13509+Q71U36+P04350+Q3ZCM7+P07437+P68363+Q9BQE3+Q6PEY2+Q13885+Q9BVA1+Q9BUF5); experiment: Inhibition of tubulin polymerization in human HCT-116 cells assessed as microtubule network polymerization after 24 hrs by immunofluorescence analysis; type: cell-based; conditions: dose 20-40 nM
[17] = system: HT-29; experiment: Antiproliferative activity against human HT-29 cells assessed as cell viability after 72 hrs by MTT assay; type: functional
[18] = system: HCT-116; experiment: Induction of apoptosis in human HCT-116 cells assessed as early apoptotic cells at 10 nM after 24 hrs by annexinV and 7-ADD staining based flow cytometry (reference value: 0.9%); type: functional
[19] = system: HCT-116; experiment: Induction of cell cycle arrest in human HCT-116 cells assessed as accumulation of cells at S phase at 20 nM after 24 hrs by flow cytometry (reference value: 43.12%); type: functional
[20] = system: HCT-116; experiment: Induction of apoptosis in human HCT-116 cells assessed as viable cells at 40 nM after 24 hrs by annexinV and 7-ADD staining based flow cytometry (reference value: 96.7%); type: functional; conditions: read-out: Activity
[21] = system: HCT-116; experiment: Induction of cell cycle arrest in human HCT-116 cells assessed as accumulation of cells at S phase at 10 nM after 24 hrs by flow cytometry (reference value: 43.12%); type: functional
[22] = molecular target: T1, Tubulin (Homo sapiens); experiment: Inhibition of tubulin polymerization in human HCT-116 cells assessed as microtubule spindle formation after 24 hrs by immunofluorescence analysis; type: cell-based; conditions: dose 20-40 nM
[23] = Toxicity in nude mouse xenografted with human HCT-116 cells assessed as change in body weight at 25 mg/kg, po for 21 days (reference value: 2.2%); type: organism-based; conditions: in vivo, 504 h, time 21 day
[24] = system: HCT-116; experiment: Induction of apoptosis in human HCT-116 cells assessed as late apoptotic cells at 40 nM after 24 hrs by annexinV and 7-ADD staining based flow cytometry (reference value: 1.5%); type: functional
[25] = system: HCT-116; experiment: Induction of apoptosis in human HCT-116 cells assessed as early apoptotic cells at 20 nM after 24 hrs by annexinV and 7-ADD staining based flow cytometry (reference value: 0.9%); type: functional
[26] = Cytotoxicity against HUVEC assessed as cell viability after 72 hrs by MTT assay; type: cell-based; conditions: human, HUVEC cells
[27] = system: HCT-116; experiment: Induction of cell cycle arrest in human HCT-116 cells assessed as accumulation of cells at G2/M phase at 20 nM after 24 hrs by flow cytometry (reference value: 16.35%); type: functional
[28] = system: HCT-116; experiment: Induction of apoptosis in human HCT-116 cells assessed as late apoptotic cells at 20 nM after 24 hrs by annexinV and 7-ADD staining based flow cytometry (reference value: 1.5%); type: functional
[29] = system: HCT-116; experiment: Induction of apoptosis in human HCT-116 cells assessed as necrotic cells at 20 nM after 24 hrs by annexinV and 7-ADD staining based flow cytometry (reference value: 0.9%); type: functional
[30] = system: HCT-116; experiment: Induction of apoptosis in human HCT-116 cells assessed as late apoptotic cells at 10 nM after 24 hrs by annexinV and 7-ADD staining based flow cytometry (reference value: 1.5%); type: functional
[31] = molecular target: Proto-oncogene tyrosine-protein kinase Src (Homo sapiens) (UniProt P12931); experiment: Inhibition of human recombinant c-SRC (1-530 aa) at 10 uM by radiometric assay
Chain of Proto-oncogene tyrosine-protein kinase Src (Homo sapiens) (P12931 2-536 limits assumed): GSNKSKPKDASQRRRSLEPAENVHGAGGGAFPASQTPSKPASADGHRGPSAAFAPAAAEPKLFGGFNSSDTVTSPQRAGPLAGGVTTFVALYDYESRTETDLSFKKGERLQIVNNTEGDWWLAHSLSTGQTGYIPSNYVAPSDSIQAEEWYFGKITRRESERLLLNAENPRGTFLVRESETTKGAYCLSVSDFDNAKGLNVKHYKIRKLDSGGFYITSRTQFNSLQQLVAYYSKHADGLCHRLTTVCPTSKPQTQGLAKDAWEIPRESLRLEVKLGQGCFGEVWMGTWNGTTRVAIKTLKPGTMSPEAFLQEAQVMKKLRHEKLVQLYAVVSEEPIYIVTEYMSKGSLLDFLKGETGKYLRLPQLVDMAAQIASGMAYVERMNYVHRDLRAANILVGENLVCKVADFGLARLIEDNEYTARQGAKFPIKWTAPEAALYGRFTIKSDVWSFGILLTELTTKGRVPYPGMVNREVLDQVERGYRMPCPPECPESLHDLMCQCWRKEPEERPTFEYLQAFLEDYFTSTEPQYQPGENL

[32] = system: HCT-116; experiment: Antitumor activity against human HCT-116 cells xenografted in nude mouse assessed as inhibition of tumor growth at 25 mg/kg, po for 21 days; type: functional; conditions: HCT-116, po, 504 h, time 21 day, read-out: TGI
[33] = Toxicity in nude mouse xenografted with human HCT-116 cells assessed as change in body weight at 12.5 mg/kg, po for 21 days (reference value: 2.2%); type: organism-based; conditions: in vivo, 504 h, time 21 day
[34] = system: HCT-116; experiment: Induction of apoptosis in human HCT-116 cells assessed as viable cells at 10 nM after 24 hrs by annexinV and 7-ADD staining based flow cytometry (reference value: 96.7%); type: functional; conditions: read-out: Activity
[35] = molecular target: Vascular endothelial growth factor receptor 2 (Homo sapiens) (UniProt P35968); experiment: Inhibition of human KDR expressed in mammalian expression system at 10 uM by radiometric assay
Chain of Vascular endothelial growth factor receptor 2 (Homo sapiens) (P35968 whole entry): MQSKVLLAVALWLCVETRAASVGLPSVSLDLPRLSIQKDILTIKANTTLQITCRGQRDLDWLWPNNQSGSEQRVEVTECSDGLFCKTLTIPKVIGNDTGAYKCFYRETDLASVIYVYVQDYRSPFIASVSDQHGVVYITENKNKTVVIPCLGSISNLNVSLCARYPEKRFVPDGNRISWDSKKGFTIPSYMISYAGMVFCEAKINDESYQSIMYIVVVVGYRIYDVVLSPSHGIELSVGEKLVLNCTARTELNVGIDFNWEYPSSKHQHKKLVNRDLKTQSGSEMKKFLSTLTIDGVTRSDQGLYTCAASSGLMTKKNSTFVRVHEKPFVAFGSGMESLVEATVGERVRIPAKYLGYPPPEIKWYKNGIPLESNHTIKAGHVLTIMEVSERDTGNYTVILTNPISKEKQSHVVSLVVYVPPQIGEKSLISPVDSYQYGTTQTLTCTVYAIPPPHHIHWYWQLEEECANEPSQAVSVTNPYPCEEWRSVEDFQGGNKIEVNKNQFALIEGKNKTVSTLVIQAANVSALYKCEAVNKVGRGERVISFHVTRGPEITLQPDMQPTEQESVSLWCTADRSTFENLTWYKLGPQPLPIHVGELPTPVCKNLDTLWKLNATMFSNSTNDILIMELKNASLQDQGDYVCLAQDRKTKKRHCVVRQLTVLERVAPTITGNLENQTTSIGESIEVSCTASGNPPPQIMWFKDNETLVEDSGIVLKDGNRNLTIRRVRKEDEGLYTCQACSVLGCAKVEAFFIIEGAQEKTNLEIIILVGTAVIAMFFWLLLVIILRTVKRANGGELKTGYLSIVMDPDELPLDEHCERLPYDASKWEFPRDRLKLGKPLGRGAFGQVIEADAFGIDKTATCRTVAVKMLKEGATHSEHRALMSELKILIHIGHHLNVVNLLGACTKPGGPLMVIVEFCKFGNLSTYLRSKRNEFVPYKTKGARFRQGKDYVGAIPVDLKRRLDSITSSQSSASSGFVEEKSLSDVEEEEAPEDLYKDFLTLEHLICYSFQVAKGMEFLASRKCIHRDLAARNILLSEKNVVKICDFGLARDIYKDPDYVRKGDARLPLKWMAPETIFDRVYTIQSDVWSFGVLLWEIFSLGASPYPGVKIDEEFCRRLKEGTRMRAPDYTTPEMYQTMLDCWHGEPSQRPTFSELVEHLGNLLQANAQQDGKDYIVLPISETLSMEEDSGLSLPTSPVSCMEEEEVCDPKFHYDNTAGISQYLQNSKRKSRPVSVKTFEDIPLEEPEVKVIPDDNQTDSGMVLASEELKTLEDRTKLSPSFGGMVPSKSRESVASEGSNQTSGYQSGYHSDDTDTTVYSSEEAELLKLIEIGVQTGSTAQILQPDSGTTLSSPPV

[36] = molecular target: T1, Tubulin (Homo sapiens); experiment: Inhibition of tubulin polymerization in human HCT-116 cells assessed as complete microtubule depolymerization at 40 nM after 24 hrs by immunofluorescence analysis; type: cell-based
[37] = system: HCT-116; experiment: Antitumor activity against human HCT-116 cells xenografted in nude mouse assessed as inhibition of tumor growth at 12.5 mg/kg, po for 21 days; type: functional; conditions: HCT-116, po, 504 h, time 21 day, read-out: TGI

With COc1ccc2c(Nc3cc(OC)c(OC)c(OC)c3)n[nH]c2c1 the Activity [1] was 21.57%, the GI50 [2] was 53 nM and the inhibition [3] was “Dose-dependent effect”. For the same compound, the viability at 0.02 µM [4] was 79.2%, the Activity [5] was 3.1% and the Activity [6] was 3.5%. It also gave an Activity [7] of 6.85%, an inhibition [8] of 24% and a GI50 [9] of 24 nM. For the same compound, the IC50 [10] was 4770 nM, the inhibition [11] was “Dose-dependent effect” and the Activity [12] was 12.8%. The GI50 [13] was 41 nM, the Activity [14] was 36.86% and the GI50 [15] was 65 nM. The inhibition [16] was “Dose-dependent effect”, the GI50 [17] was 96 nM and the Activity [18] was 5.1%. It also gave an Activity [19] of 6.04%, a viability at 0.04 µM [20] of 66.2% and an Activity [21] of 41.56%. The inhibition [22] was “Dose-dependent effect”, the Activity [23] was 1.1% and the Activity [24] was 17.6%. For the same compound, the Activity [25] was 5.2%, the GI50 at 72 h [26] was > 25000 nM and the Activity [27] was 87.12%. It also gave an Activity [28] of 13.1%, an Activity [29] of 2.6% and an Activity [30] of 10.1%. For the same compound, the inhibition [31] was 35%, the inhibition in vivo at 25 mg/kg [32] was 59.9% and the Activity [33] was 2.8%. It also gave a viability at 0.01 µM [34] of 81.8%, an inhibition [35] of 66% and an inhibition [36] of 100%. For the same compound, the inhibition in vivo at 12.5 mg/kg [37] was 34.3%.
